molecular target: METTL3/14 (Homo sapiens (Human), UniProt Q86U44); assay: METTL3/14 methyltransferase biochemical assay (RapidFire mass spectrometry, METTL3_14 RFMS); details: not given
Procedure: The enzymatic assay was established to determine IC50 values for inhibition of RNA methyltransferase activity. The enzyme used was full-length his-tagged METTL3 co-expressed with full length FLAG-tagged METTL14 in a baculovirus expression system. […] The reaction was incubated for further 60 minutes at room temperature, and then quenched by the addition of 40 μL 7.5% TCA with two internal product standards (D4-SAH and ^13C10-SAH). After termination, plates were sealed, centrifuged and stored at 4° C. until analysis. […] RNA methyltransferase activity was measured label free using the RapidFireTM mass spectrometry (RF/MS) platform. Stopped and stable assay plates were analyzed on the Agilent RF300 integrated autosampler/solid-phase extraction (SPE) system coupled to an ABSciex 4000 mass spectrometer for the generation of the product S-adenosyl homocysteine (SAH) and normalized to the ratio of signal of the two internal product standards, respectively. Solvent A was water containing 0.1% (v/v) TCA. Solvent B was acetonitrile/0.1% ammonium acetate (8:2, v/v).

Sequence of METTL3/14 (Q86U44 whole entry): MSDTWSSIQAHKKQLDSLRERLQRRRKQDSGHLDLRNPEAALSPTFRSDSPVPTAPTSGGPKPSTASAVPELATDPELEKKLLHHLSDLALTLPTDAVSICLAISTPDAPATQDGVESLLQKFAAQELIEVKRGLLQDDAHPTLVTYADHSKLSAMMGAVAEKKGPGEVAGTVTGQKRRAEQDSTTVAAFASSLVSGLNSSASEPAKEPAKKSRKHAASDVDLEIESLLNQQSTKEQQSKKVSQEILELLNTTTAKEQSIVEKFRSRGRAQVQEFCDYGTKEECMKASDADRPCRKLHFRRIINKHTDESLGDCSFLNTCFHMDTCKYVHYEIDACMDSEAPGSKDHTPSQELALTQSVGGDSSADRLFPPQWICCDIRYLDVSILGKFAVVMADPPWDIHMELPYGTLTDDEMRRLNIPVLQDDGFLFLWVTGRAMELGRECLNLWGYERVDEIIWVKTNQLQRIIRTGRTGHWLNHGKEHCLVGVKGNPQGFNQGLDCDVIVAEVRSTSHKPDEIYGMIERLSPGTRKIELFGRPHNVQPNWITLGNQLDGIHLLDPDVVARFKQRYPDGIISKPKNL
Sequence of METTL3/14 (Q9HCE5 whole entry partner): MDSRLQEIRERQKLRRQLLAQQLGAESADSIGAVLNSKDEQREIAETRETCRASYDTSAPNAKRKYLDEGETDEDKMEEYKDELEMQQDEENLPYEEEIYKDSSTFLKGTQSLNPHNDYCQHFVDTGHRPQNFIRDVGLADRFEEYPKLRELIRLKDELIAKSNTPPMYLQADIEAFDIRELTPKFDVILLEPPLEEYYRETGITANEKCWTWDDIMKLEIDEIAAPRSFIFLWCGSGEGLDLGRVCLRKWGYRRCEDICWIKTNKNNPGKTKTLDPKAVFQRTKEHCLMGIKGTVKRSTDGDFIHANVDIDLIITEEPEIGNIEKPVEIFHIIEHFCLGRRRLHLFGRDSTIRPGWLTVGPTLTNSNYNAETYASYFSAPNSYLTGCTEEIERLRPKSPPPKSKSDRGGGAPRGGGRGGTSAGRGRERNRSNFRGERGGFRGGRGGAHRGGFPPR

Row | IC50 | Compound
1 | 719 nM | Cc1nc(C(=O)NCc2cn3cc(CNCC4CCCCC4)ccc3n2)cc(=O)n1C [Example 2, N-[(6-{[(cyclohexylmethyl)amino]methyl}imidazo[1,2-a]pyridin-2-yl)methyl]-1,2-dimethyl-6-oxo-1,6-dihydropyrimidine-4-carboxamide]
2 | 151 nM | O=C(NCc1cn2cc(CNCC3CCCCC3)ccc2n1)c1cnc2ccccc2n1 [Example 6, N-[(6-{[(cyclohexylmethyl)amino]methyl}imidazo[1,2-a]pyridin-2-yl)methyl]quinoxaline-2-carboxamide]
3 | 1400 nM | O=C(NCc1cn2cc(CNCC3CCCCC3)ccc2n1)c1ccnc2[nH]ncc12 [Example 7, N-[(6-{[(cyclohexylmethyl)amino]methyl}imidazo[1,2-a]pyridin-2-yl)methyl]-1H-pyrazolo[3,4-b]pyridine-4-carboxamide]
4 | 36.5 nM | O=C(NCc1cn2cc(CNCC3CCC3)ccc2n1)c1cccn2cncc12 [Example 10, N-[(6-{[(cyclobutylmethyl)amino]methyl}imidazo[1,2-a]pyridin-2-yl)methyl]imidazo[1,5-a]pyridine-8-carboxamide]
5 | 104 nM | O=C(NCc1cn2cc(CNCC3CCC3)ccc2n1)c1cccc2cncn12 [Example 11, N-[(6-{[(cyclobutylmethyl)amino]methyl}imidazo[1,2-a]pyridin-2-yl)methyl]imidazo[1,5-a]pyridine-5-carboxamide]
6 | 1070 nM | O=C(NCc1cn2cc(CNCC3CCC3)ccc2n1)c1cnc2[nH]cnc2c1 [Example 13, N-[(6-{[(cyclobutylmethyl)amino]methyl}imidazo[1,2-a]pyridin-2-yl)methyl]-3H-imidazo[4,5-b]pyridine-6-carboxamide]
7 | 14.5 nM | O=C(NCc1cn2cc(CNCC3CCC3)ccc2n1)c1cnc2[nH]ccc2c1 [Example 14, N-[(6-{[(cyclobutylmethyl)amino]methyl}imidazo[1,2-a]pyridin-2-yl)methyl]-1H-pyrrolo[2,3-b]pyridine-5-carboxamide]
8 | 27.3 nM | O=C(NCc1cn2cc(CNCC3CC(F)(F)C3)ccc2n1)c1cnc2[nH]ccc2c1 [Example 15, N-{[6-({[(3,3-difluorocyclobutyl)methyl]amino}methyl)imidazo[1,2-a]pyridin-2-yl]methyl}-1H-pyrrolo[2,3-b]pyridine-5-carboxamide]
9 | 1600 nM | Cn1ccc2cc(C(=O)NCc3cn4cc(CNCC5CCC5)ccc4n3)cnc21 [Example 16, N-[(6-{[(cyclobutylmethyl)amino]methyl}imidazo[1,2-a]pyridin-2-yl)methyl]-1-methyl-1H-pyrrolo[2,3-b]pyridine-5-carboxamide]
10 | 3820 nM | O=C(NCc1cn2cc(CNCC3CCC3)ccc2n1)c1ccc2[nH]ccc2c1 [Example 17, N-[(6-{[(cyclobutylmethyl)amino]methyl}imidazo[1,2-a]pyridin-2-yl)methyl]-1H-indole-5-carboxamide]
11 | 14.1 nM | O=C(NCc1cn2cc(CNCC3CCC3)ccc2n1)c1cnc2[nH]ccc2n1 [Example 18, N-[(6-{[(cyclobutylmethyl)amino]methyl}imidazo[1,2-a]pyridin-2-yl)methyl]-5H-pyrrolo[2,3-b]pyrazine-2-carboxamide]
12 | 6.1 nM | Clc1cc(-c2cn(Cc3cn4cc(CNCC5CCC5)ccc4n3)nn2)c2cncn2c1 [Example 24, ({2-[(4-{6-chloroimidazo[1,5-a]pyridin-8-yl}-1H-1,2,3-triazol-1-yl)methyl]imidazo[1,2-a]pyridin-6-yl}methyl)(cyclobutylmethyl)amine]
13 | 1260 nM | c1ccc2c(-c3cn(Cc4cn5cc(CN(CC6CCC6)CC6CCC6)ccc5n4)nn3)cncc2c1 [Example 32, bis(cyclobutylmethyl)[(2-{[4-(isoquinolin-4-yl)-1H-1,2,3-triazol-1-yl]methyl}imidazo[1,2-a]pyridin-6-yl)methyl]amine]
14 | 9.34 nM | c1cc2cc(-c3cn(Cc4cn5cc(CNCC6CCC6)ccc5n4)cn3)cnc2[nH]1 [Example 34, (cyclobutylmethyl)({2-[(4-{1H-pyrrolo[2,3-b]pyridin-5-yl}-1H-imidazol-1-yl)methyl]imidazo[1,2-a]pyridin-6-yl}methyl)amine]
15 | 105 nM | Cc1ncc2c(-c3cn(Cc4cn5cc(CNCC67CC(F)(C6)C7)ccc5n4)nn3)cccn12 [Example 36, ({3-fluorobicyclo[1.1.1]pentan-1-yl}methyl)({2-[(4-{3-methylimidazo[1,5-a]pyridin-8-yl}-1H-1,2,3-triazol-1-yl)methyl]imidazo[1,2-a]pyridin-6-yl}methyl)amine]
16 | 11.2 nM | COc1cnc(C#N)c(-c2cn(Cc3cn4cc(CNCC56CC(C5)C6)ccc4n3)nn2)c1 [Example 37, 3-{1-[(6-{[({bicyclo[1.1.1]pentan-1-yl}methyl)amino]methyl}imidazo[1,2-a]pyridin-2-yl)methyl]-1H-1,2,3-triazol-4-yl}-5-methoxypyridine-2-carbonitrile]
17 | 57 nM | COc1cnc(C#N)c(-c2cn(Cc3cn4cc(CNCC5CCC5)ccc4n3)nn2)c1 [Example 38, 3-{1-[(6-{[(cyclobutylmethyl)amino]methyl}imidazo[1,2-a]pyridin-2-yl)methyl]-1H-1,2,3-triazol-4-yl}-5-methoxypyridine-2-carbonitrile]
18 | 76 nM | COc1cnc(C#N)c(-c2cn(Cc3cn4cc(CN5CCC6(CCC6)C5)ccc4n3)nn2)c1 [Example 40, 3-(1-{[6-({6-azaspiro[3.4]octan-6-yl}methyl)imidazo[1,2-a]pyridin-2-yl]methyl}-1H-1,2,3-triazol-4-yl)-5-methoxypyridine-2-carbonitrile]
19 | 1180 nM | N#Cc1ncc(F)cc1-c1cn(Cc2cn3cc(CN4CCC5(CCC5)C4)ccc3n2)nn1 [Example 42, 3-(1-{[6-({6-azaspiro[3.4]octan-6-yl}methyl)imidazo[1,2-a]pyridin-2-yl]methyl}-1H-1,2,3-triazol-4-yl)-5-fluoropyridine-2-carbonitrile]
20 | 235 nM | N#Cc1ncc(F)cc1-c1cn(Cc2cn3cc(CNCC45CC(F)(C4)C5)ccc3n2)nn1 [Example 43, 5-fluoro-3-{1-[(6-{[({3-fluorobicyclo[1.1.1]pentan-1-yl}methyl)amino]methyl}imidazo[1,2-a]pyridin-2-yl)methyl]-1H-1,2,3-triazol-4-yl}pyridine-2-carbonitrile]
21 | 74 nM | COc1cncc(C(=O)NCc2cn3cc(CNCC4CCC4)ccc3n2)c1 [Example 46, N-[(6-{[(cyclobutylmethyl)amino]methyl}imidazo[1,2-a]pyridin-2-yl)methyl]-5-methoxypyridine-3-carboxamide]
22 | 85 nM | COc1cnc(C(N)=O)c(-c2cn(Cc3cn4cc(CNCC56CC(F)(C5)C6)ccc4n3)nn2)c1 [Example 49, 3-{1-[(6-{[({3-fluorobicyclo[1.1.1]pentan-1-yl}methyl)amino]methyl}imidazo[1,2-a]pyridin-2-yl)methyl]-1H-1,2,3-triazol-4-yl}-5-methoxypyridine-2-carboxamide]

same assay, conditions: inhibition of RNA methyltransferase activity; 5 nM METTL3/14, 0.2 μM RNA substrate, 0.5 μM SAM; lower limit of the assay IC50=5 nM

Row | IC50 | Compound
23 | 1190 nM | O=C(NCc1cn2cc(CNCC3CCCCC3)ccc2n1)c1cnc2ccccc2c1 [Example 8, N-[(6-{[(cyclohexylmethyl)amino]methyl}imidazo[1,2-a]pyridin-2-yl)methyl]quinoline-3-carboxamide]
24 | 5340 nM | Cc1ccc2nc(CNC(=O)c3nccc4[nH]ncc34)cn2c1 [Reference Example 1, N-({6-methylimidazo[1,2-a]pyridin-2-yl}methyl)-1H-pyrazolo[4,3-c]pyridine-4-carboxamide]

system: Caov-3 cells; assay: Caov3 CTG proliferation assay (CellTiter-Glo); type: cell-based; details: Homo sapiens, 120 hours treatment, 30 μM top concentration
Procedure: Cell treatment and cell growth assessment: 18 hours post-seeding in white 384-Viewplate (6007480, PerkinElmer) at 1500 cells/well, Caov3 cells were treated for 120 hours with compounds inhibiting the METTL3/14 activity (10 serial semi-log dilutions, 30 μM as top concentration). Upon treatment, Coav-3 cells were incubated for 10 min at RT with the CellTiter-Glo reagent (G7571, Promega). Measurement of the luminescence signal was performed on a microplate reader (Ensight, PerkinElmer).

Row | Compound | IC50
25 | O=C(NCc1cn2cc(CNCC3CCC3)ccc2n1)c1cnc2[nH]ccc2n1 [Example 18, N-[(6-{[(cyclobutylmethyl)amino]methyl}imidazo[1,2-a]pyridin-2-yl)methyl]-5H-pyrrolo[2,3-b]pyrazine-2-carboxamide] | 2790 nM
26 | Clc1cc(-c2cn(Cc3cn4cc(CNCC5CCC5)ccc4n3)nn2)c2cncn2c1 [Example 24, ({2-[(4-{6-chloroimidazo[1,5-a]pyridin-8-yl}-1H-1,2,3-triazol-1-yl)methyl]imidazo[1,2-a]pyridin-6-yl}methyl)(cyclobutylmethyl)amine] | 343 nM
27 | c1cc2cc(-c3cn(Cc4cn5cc(CNCC6CCC6)ccc5n4)cn3)cnc2[nH]1 [Example 34, (cyclobutylmethyl)({2-[(4-{1H-pyrrolo[2,3-b]pyridin-5-yl}-1H-imidazol-1-yl)methyl]imidazo[1,2-a]pyridin-6-yl}methyl)amine] | 1280 nM

Source: patent publication US20230391770A1, “METTL3 INHIBITORY COMPOUNDS” (Storm Therapeutics Limited, priority 2020, published 2023)
